Data published in patent publication US7576222B2, “Alkynyl-containing tryptophan derivative inhibitors of TACE/matrix metalloproteinase” (priority 2004, dated 2009).

What follows are compounds tested against T1, catalytic domain of the recombinant TACE protein (Homo sapiens, UniProt P78536) (assay: TACE FRET assay using TACE cat). Conditions: not given.
T1 construct: The catalytic domain of the recombinant TACE protein was expressed and purified; made in house
T1 sequence (P78536 223-474 limits assumed): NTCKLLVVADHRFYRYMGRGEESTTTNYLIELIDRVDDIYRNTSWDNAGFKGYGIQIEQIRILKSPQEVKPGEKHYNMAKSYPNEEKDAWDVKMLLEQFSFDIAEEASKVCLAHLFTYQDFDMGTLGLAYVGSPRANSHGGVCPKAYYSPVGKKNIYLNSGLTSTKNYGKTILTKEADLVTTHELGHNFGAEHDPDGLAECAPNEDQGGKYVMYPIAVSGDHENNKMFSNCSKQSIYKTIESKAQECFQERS
Assay type: biochemical
Protocol: TACE FRET Assay Using TACE Cat
“K” is the IC50. Generally, “n” and “B” are floated, noting that n (Hill slope) should be close to 1 and B (background offset) to 0.
Pro-TNF-α substrate peptide Abz-[…]-Dpa (AnaSpec, San Jose, Calif., WARC-1) was prepared as a 2 mM stock solution in the TACE assay buffer (50 mM Tris-HCl, pH 7.4, 25 mM NaCl, 4% Glycerol, 0.005% Brij 35). The catalytic domain of the recombinant TACE protein was expressed and purified. The TACE protein (1 ug/ml) was pretreated with the inhibitors at various concentrations for 10 min. at room temperature. The reaction was initiated by the addition of the substrate peptide. […] The initial rate (slope) of the reaction was determined using a fluorescence plate reader (Molecular Devices, Spectra Max Gemini XS).
`CC#CCOc1ccc(S(=O)(=O)N[C@@H](Cc2c(C)n(Cc3ccccc3)c3ccc(OC)cc23)C(=O)O)cc1` [Example 185, 1-benzyl-N-{[4-(but-2-ynyloxy)phenyl]sulfonyl}-5-methoxy-2-methyltryptophan] gave an IC50 of 200 nM.
For `CC#CCOc1ccc(S(=O)(=O)N[C@@H](Cc2c(C)n(Cc3ccc(C)cc3)c3ccc(OC)cc23)C(=O)O)cc1` [Example 188, N-{[4-(but-2-ynyloxy)phenyl]sulfonyl}-5-methoxy-2-methyl-1-(4-methylbenzyl)tryptophan], the IC50 was 270 nM.
For `CC#CCOc1ccc(S(=O)(=O)N[C@@H](Cc2cn(Cc3ccc4c(c3)OCO4)c3ccc(OC)cc23)C(=O)O)cc1` [Example 65, 1-(1,3-benzodioxol-5-ylmethyl)-N-{[4-(but-2-ynyloxy)phenyl]sulfonyl}-5-methoxytryptophan], the IC50 was 1500 nM.

Same assay, conditions: TACE FRET assay, catalytic domain of recombinant TACE; read-out: TACE IC50
`CC#CCOc1ccc(S(=O)(=O)N[C@@H](Cc2c[nH]c3ccccc23)C(=O)O)cc1` [Example 2, N-{[4-(but-2-ynyloxy)phenyl]sulfonyl}-L-tryptophan] was tested, and the IC50 was 8200 nM.
`CC#CCOc1ccc(S(=O)(=O)N[C@H](Cc2cn(CCCCC)c3ccccc23)C(=O)O)cc1` [Example 22, N-{[4-(but-2-ynyloxy)phenyl]sulfonyl}-1-pentyl-D-tryptophan] showed an IC50 of 2310 nM.

Same assay, conditions: read-out: TACE Inhibition (%)
`CC#CCOc1ccc(S(=O)(=O)N[C@@H](Cc2cn(CC3CCC3)c3ccc(C(=O)O)cc23)C(=O)O)cc1` [Example 131, N-{[4-(but-2-ynyloxy)phenyl]sulfonyl}-5-carboxy-1-(cyclobutylmethyl)tryptophan] showed an inhibition at 1 µM of -1.21%.
Work on `CC#CCOc1ccc(S(=O)(=O)N[C@@H](Cc2cn(CCCCC)c3ccc(C(=O)O)cc23)C(=O)O)cc1` [Example 130, N-{[4-(but-2-ynyloxy)phenyl]sulfonyl}-5-carboxy-1-pentyltryptophan] yielded an inhibition at 1 µM of -5.71%.
For `CC#CCOc1ccc(S(=O)(=O)N[C@@H](Cc2c(C)n(Cc3ccc(F)cc3)c3ccccc23)C(=O)O)cc1` [Example 154, N-{[4-(but-2-ynyloxy)phenyl]sulfonyl}-1-(4-fluorobenzyl)-2-methyltryptophan], the inhibition at 1 µM was 52.7%.
In the case of `CC#CCOc1ccc(S(=O)(=O)N[C@@H](Cc2cn(C)c3ccc(C(=O)O)cc23)C(=O)O)cc1` [Example 127, N-{[4-(but-2-ynyloxy)phenyl]sulfonyl}-5-carboxy-1-methyltryptophan], the inhibition at 1 µM is reported as -3.22%.
With `CC#CCOc1ccc(S(=O)(=O)N[C@@H](Cc2c(C)n(Cc3cc(OC)cc(OC)c3)c3ccc(OC)cc23)C(=O)O)cc1` [Example 192, N-{[4-(but-2-ynyloxy)phenyl]sulfonyl}-1-(3,5-dimethoxybenzyl)-5-methoxy-2-methyltryptophan] the inhibition at 1 µM was 80%.
`CC#CCOc1ccc(S(=O)(=O)N[C@@H](Cc2c(C)n(Cc3cccc(F)c3)c3ccccc23)C(=O)O)cc1` [Example 153, N-{[4-(but-2-ynyloxy)phenyl]sulfonyl}-1-(3-fluorobenzyl)-2-methyltryptophan] gave an inhibition at 1 µM of 55.9%.
With `CC#CCOc1ccc(S(=O)(=O)N[C@@H](Cc2c(C)n(CCCCC)c3ccc(OC)cc23)C(=O)O)cc1` [Example 211, N-{[4-(but-2-ynyloxy)phenyl]sulfonyl}-5-methoxy-2-methyl-1-pentyltryptophan] the inhibition at 1 µM was 72.2%.
In the case of `CC#CCOc1ccc(S(=O)(=O)N[C@@H](Cc2cn(Cc3ccccc3OC)c3ccc(Cl)cc23)C(=O)O)cc1` [Example 74, N-{[4-(but-2-ynyloxy)phenyl]sulfonyl}-5-chloro-1-(2-methoxybenzyl)tryptophan], the inhibition at 1 µM is reported as 15%.
For `CC#CCOc1ccc(S(=O)(=O)N[C@@H](Cc2cn(Cc3cccc(C#N)c3)c3ccc(C(=O)O)cc23)C(=O)O)cc1` [Example 122, N-{[4-(but-2-ynyloxy)phenyl]sulfonyl}-5-carboxy-1-(3-cyanobenzyl)tryptophan], the inhibition at 1 µM was -0.34%.
Compound `CC#CCOc1ccc(S(=O)(=O)N[C@@H](Cc2cn(Cc3ccc(C(F)(F)F)cc3)c3ccc(C(=O)O)cc23)C(=O)O)cc1` [Example 113, N-{[4-(but-2-ynyloxy)phenyl]sulfonyl}-5-carboxy-1-[4-(trifluoromethyl)benzyl]tryptophan] has an inhibition at 1 µM of -2.04%.
